The results in this text go back to patent US20030229087A1 (priority 2002, published 2003).

In test [1] the test system is Sphaerotheca fuliginea. Description: whole plant or invertebrate. The conditions noted are these: for % Efficacy: in vivo. It is filed as in vivo.
In test [2] the test system is Phytophthora infestans. As to the kind of experiment: whole plant or invertebrate. It is filed as in vivo.
Setting [3] is: Podosphaera fuliginea, in Cucumis sativus, 240 h, read-out: % Efficacy.
Where [4] appears, read: Phytophthora infestans, in Solanum lycopersicum, 72 h, read-out: % Efficacy.

Regarding `N=C(N)NCCCCCCCCNCCCCCCCCNC(=N)N` [(XIX) (18), N,N′″-(iminodi-8,1-octanediyl)bis-guanidine triacetate], the pest or weed control at 2.5 g/ha in test [1] (setting [3]) was 43%. On to `CCC1(C(=O)NC(C)c2ccc(Cl)cc2)C(C)C1(Cl)Cl` (stereo not drawn) [N-[1-(4-chloro-phenyl)-ethyl]-2,2-dichloro-1-ethyl-3-methyl-cyclopropane-carboxamide], for which, in test [1] (setting [3]), the pest or weed control at 5 g/ha was 10%. Consider `CO/C=C(/C(=O)OC)c1ccccc1Oc1cc(Oc2ccccc2C#N)ncn1` [azoxystrobin (XVII) (16), azoxystrobin], for which the pest or weed control at 1 g/ha in test [1] (setting [3]) turned out to be 37%. For `CCCCNC(=O)n1c(NC(=O)OC)nc2ccccc21` [benomyl (LXXXIII) (30), benomyl], in test [1] (setting [3]), the pest or weed control at 5 g/ha came out at 50%.

Consider `O=C1C2CC=CCC2C(=O)N1SC(Cl)(Cl)Cl` (stereo not drawn) [captan (LV) (54), captan], for which the pest or weed control at 40 g/ha in test [2] (setting [4]) was 0%. Turning to `COC(=O)Nc1nc2ccccc2[nH]1` [carbendazim (XXXI) (30), carbendazim], the pest or weed control at 2.5 g/ha in test [1] (setting [3]) came out at 63%. With `Cc1ccc2nc3sc(=O)sc3nc2c1` [chinomethionat], the pest or weed control at 20 g/ha in test [2] (setting [4]) was 0%.

As for `[Cl-].[Cu+2].[Cu+2].[OH-].[OH-].[OH-]` [copper oxychloride (LXIV) (63), copper oxychloride], in test [1], the “% Efficacy” value stood at 11%.

Regarding `Cc1ccc(-c2c(Cl)nc(C#N)n2S(=O)(=O)N(C)C)cc1` [cyamidazosulfamid (LXX IV)(73), cyamidazosulfamid], in test [2] (setting [4]), the pest or weed control at 0.5 g/ha was 45%. Besides, the pest or weed control at 1 g/ha in test [1] (setting [3]) stood at 0%. Turning to `CCNC(=O)NC(=O)C(C#N)=NOC` [cymoxanil (XLVI) (45), cymoxanil], the pest or weed control at 2.5 g/ha in test [2] (setting [4]) is 0%. Moreover, the pest or weed control at 5 g/ha in test [1] (setting [3]) amounted to 15%.

`CC1(C(=O)Nc2ccc(O)c(Cl)c2Cl)CCCCC1` [fenhexamid (LII) (51), fenhexamid]: in test [1] (setting [3]), the pest or weed control at 5 g/ha is 10%. For the molecule `N#Cc1c[nH]cc1-c1cccc(Cl)c1Cl` [fenpiclonil (XXVIII) (27), 4-(2,3-dichlorophenyl)-1H-pyrrole-3-carbonitrile], in test [1] (setting [3]), the pest or weed control at 2.5 g/ha came out at 0%. Regarding `O=C1c2ccccc2C(=O)N1SC(Cl)(Cl)Cl` [folpet], the pest or weed control at 40 g/ha in test [1] (setting [3]) worked out at 0%. For `CC(C)NC(=O)N1CC(=O)N(c2cc(Cl)cc(Cl)c2)C1=O` [iprodione (LXV) (64), iprodione], the pest or weed control at 5 g/ha in test [1] (setting [3]) came out at 0%.

Consider `COCC(=O)N(c1c(C)cccc1C)C(C)C(=O)OC` (stereo not drawn) [metalaxyl (XXVII)(26), metalaxyl], for which the pest or weed control at 1 g/ha in test [1] (setting [3]) stood at 11%. For `CO/C=C(/C(=O)OC)c1ccccc1COc1cccc(C(F)(F)F)n1` [picoxystrobin (LXXXIII) (82), picoxystrobin], in test [1] (setting [3]), the pest or weed control at 2 g/ha worked out at 0%. Regarding `CCCN(CCOc1c(Cl)cc(Cl)cc1Cl)C(=O)n1ccnc1` [prochloraz (XXI) (20), prochloraz], the pest or weed control at 10 g/ha in test [2] (setting [4]) came out at 0%. For the molecule `CC12CC1(C)C(=O)N(c1cc(Cl)cc(Cl)c1)C2=O` (stereo not drawn) [procymidone (XLII) (41), procymidone], in test [1] (setting [3]), the pest or weed control at 5 g/ha is 0%. `N#Cc1c(Cl)c(Cl)c(Cl)c(C#N)c1Cl` [tetrachloro-isophthalo-dinitrile]: the pest or weed control at 40 g/ha in test [1] (setting [3]) stood at 0%. Same read-out and setting: the figure for `Cc1ccc(N(SC(F)(Cl)Cl)S(=O)(=O)N(C)C)cc1` [tolylfluanid] is 0%.

As to `CC(C)(C)C(=O)C(Oc1ccc(Cl)cc1)n1cncn1` (stereo not drawn) [triadimefon (IX) (8), 1-(4-chloro-phenoxy)-3,3-dimethyl-1-(1,2,4-triazol-1-yl)-butan-2-one], in test [1] (setting [3]), the pest or weed control at 10 g/ha came out at 0%. With `CO/N=C(/C(=O)OC)c1ccccc1CO/N=C(\C)c1cccc(C(F)(F)F)c1` [trifloxystrobin (LXXVI) (75), trifloxystrobin], the pest or weed control at 2 g/ha in test [1] (setting [3]) worked out at 43%.

As to `C=CC1(C)OC(=O)N(c2cc(Cl)cc(Cl)c2)C1=O` (stereo not drawn) [vinclozolin], the pest or weed control at 5 g/ha in test [1] (setting [3]) is 10%. For dichlofluanid, the “% Efficacy” value in test [1] is on record as 0%.

Regarding mancozeb [mancozeb (XLIII) (42)], the “% Efficacy” value in test [2] (in vivo) is given as 23%.
